Test results as given in PMC3109911 (The Journal of neuroscience : the official journal of the …, 2011).
Where a name gives a salt, the structure may show the parent alone.

Assays:
[1] = tested on: Schaffer-CA1 synaptic transmission in rat ventral hippocampal slices; assay: Field EPSP recordings from ventral hippocampal slices
D1-like receptors = settings: ref Hersi et al., 1995; cited from earlier work
D5 receptors = assay: ERK1/2 phosphorylation in transfected CHO cells expressing D5 receptors
galanin receptor [2] = settings: ref Lang et al., 2007; cited from earlier work
D1 receptors = assay: ERK1/2 phosphorylation in transfected CHO cells expressing D1 receptors
galanin receptor [3] = settings: ref Lang et al., 2007; cited from earlier work; remark: listed apart in the source
[4] = tested on: Schaffer-CA1 synaptic transmission in dorsal hippocampal slices; assay: Field EPSP recordings from dorsal hippocampal slices; settings: SKF 38393 20 nM, n=3

## CN1[C@@H]2CC[C@H]1C[C@@H](OC(=O)C(CO)c1ccccc1)C2 (some centres unmarked) [atropine]
[1]; atropine 5 µM by itself
  effect on fEPSP: did not significantly modify fEPSP

## NCCc1ccc(O)c(O)c1 [dopamine]
D1-like receptors
  effect on hippocampal ACh release: facilitates hippocampal ACh release by acting on D1-like receptors

## galanin (1–13)-Pro-Pro-(Ala-Leu-)2Ala amide [M40]
D5 receptors; antagonist 10 µM, 20 min prior, SKF 81297 70 nM, 5 min, cells only expressing D5
  antagonism of SKF 81297-induced ERK1/2 phosphorylation: not modified by the presence of M40
Galanin receptor [2]
  agonism in cell lines: full agonists in some cell lines
D1 receptors; antagonist 10 µM, 20 min prior, SKF 81297 70 nM, 5 min, cells only expressing D1
  antagonism of SKF 81297-induced ERK1/2 phosphorylation: not modified by the presence of M40
Galanin receptor [3]
  antagonism in vivo: clearly antagonists in vivo

## Br.Oc1cc2c(c(Cl)c1O)CCNCC2c1ccccc1 (racemic) [SKF 81297]
D5 receptors; SKF 81297 50 nM, cells expressing D5
  ERK1/2 phosphorylation, time course: time-dependently induced ERK1/2 phosphorylation
D1 receptors; SKF 81297 (text 50 nM; Fig. 4 legend 70 nM), cells expressing D1
  ERK1/2 phosphorylation, time course: time-dependently induced ERK1/2 phosphorylation

## Oc1cc2c(cc1O)C(c1ccccc1)CNCC2 (racemic) [SKF 38393, (±)-1-Phenyl-2,3,4,5-tetrahydro-(1H)-3-benzazepine-7,8-diol hydrobromide]
[1]; SKF 38393 20 nM after atropine (5 µM, at least 30 min before)
  effect on synaptic transmission (fEPSP): did not significantly affect synaptic transmission
[1]; SKF 38393 20 nM alone, n=7
  effect on the slope of fEPSP: virtually devoid of effect
[4]
  effect on fEPSP slope: devoid of any effect on fEPSP slope
